Data on one molecule can be found in patent US20260015356A1, “ADENOSINE RECEPTOR ANTAGONISTS AND USES THEREOF” (Teon Therapeutics, Inc., priority 2022, published 2026).

Structures are written as SMILES.

The assay relates to MC38 tumor model. The experiment in a line: MC38 tumor model (fibrosis). It counts as in vivo. Particulars: no dose or method printed.

Turning to `CCCn1c(=O)c2c(nc(-c3cnn(Cc4cccc(C(F)(F)F)c4)c3)n2C(C)=O)n(CC)c1=O` [Compound 1, 7-acetyl-3-ethyl-1-propyl-8-(1-(3-(trifluoromethyl)benzyl)-1H-pyrazol-4-yl)-3,7-dihydro-1H-purine-2,6-dione], the “fibrosis in a MC38 tumor model” value is reported as “reduces fibrosis”.
